Results on four compounds are retold here after patent US5234925A (Dana-Farber Cancer Institute, Inc., priority 1991, dated 1993).

Data set [1] addresses T1, Mouse liver FPGS (Mus musculus, UniProt P48760).
T1 sequence (P48760 43-587): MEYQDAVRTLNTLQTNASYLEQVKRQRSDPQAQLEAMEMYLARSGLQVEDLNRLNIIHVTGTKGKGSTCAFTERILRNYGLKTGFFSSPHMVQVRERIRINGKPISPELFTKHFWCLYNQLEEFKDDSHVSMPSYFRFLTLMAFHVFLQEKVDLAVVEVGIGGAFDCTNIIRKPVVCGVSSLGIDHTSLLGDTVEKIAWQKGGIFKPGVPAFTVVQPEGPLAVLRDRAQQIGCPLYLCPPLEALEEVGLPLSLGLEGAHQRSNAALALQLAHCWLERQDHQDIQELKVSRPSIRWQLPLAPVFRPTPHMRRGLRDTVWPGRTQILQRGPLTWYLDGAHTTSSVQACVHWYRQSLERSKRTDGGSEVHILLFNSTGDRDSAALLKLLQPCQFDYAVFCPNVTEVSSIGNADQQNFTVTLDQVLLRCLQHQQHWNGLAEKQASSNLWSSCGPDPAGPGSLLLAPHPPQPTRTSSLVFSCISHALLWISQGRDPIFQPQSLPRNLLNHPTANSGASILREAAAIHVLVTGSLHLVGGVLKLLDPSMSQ
The conditions noted are these: relative to folic acid (1.0); cited from earlier work.

In data set [2] the test system is L1210 cells. The conditions noted are these: cited from earlier work; for IC50: 48 h, RPMI 1640 with 10% nondialyzed fetal calf serum.
The target of data set [3] is T2, L1210 TS (Mus musculus, UniProt P07607).
T2 construct: purified TS from L1210 murine leukemic cells; endogenous in cells; host or cells: L1210 murine leukemic cells (enzyme purified from them)
As to the kind of experiment: Inhibition of purified TS from L1210 murine leukemic cells (3H release assay). It is filed as biochemical. On the procedure:
^b Inhibition of purified TS from L1210 cells was determined by the
^3 Hrelease assay method as described previously (Sikora et al.)

Data set [4] has as its system L1210 cells. As to the kind of experiment: Inhibition of growth of L1210 cells in culture. Particulars: for IC50: Mus musculus, L1210. Type of data set: cell-based, murine. The method, then: ^d Cells were incubated in RPMI 1640 medium supplemented with 10%
nondialyzed fetal calf serum, and were counted after 48 h of drug
^e The IC50 for cells grown in the presence of 10 μM dThd
increased only to 0.84 μM.
It was therefore of interest to determine whether 2-aza analogues such as 10 also require both dThd and HX for complete protection from their growth inhibitory effect.

Data set [5] deals with T1, Mouse liver FPGS. As to the kind of experiment: Substrate activity for partially purified FPGS from mouse liver. It is filed as biochemical. An excerpt: ^c Substrate activity for partially purified FPGS from mouse liver wa
determined as described previously (Moran et al., Mol. Pharmacol. 27:156,
1985), with relative Vmax and k' values expressed in comparison with […]

The target in data set [6] is T2, L1210 TS. The conditions noted are these: cited from earlier work.
For data set [7] the following is noted: physiologic pH; cited from earlier work.
For data set [8] the following is noted: clinical trials; cited from earlier work.
The conditions of data set [9]: compared with reduced folates and MTX; cited from earlier work.

The structures appear in SMILES notation. Where two headings read alike, the source gives them in different places.

Usually IC50 stands for the concentration at which inhibition is half-maximal. Usually Ki stands for the equilibrium dissociation constant of an inhibitor or competing ligand from its target.

T2 sequence (P07607 whole entry): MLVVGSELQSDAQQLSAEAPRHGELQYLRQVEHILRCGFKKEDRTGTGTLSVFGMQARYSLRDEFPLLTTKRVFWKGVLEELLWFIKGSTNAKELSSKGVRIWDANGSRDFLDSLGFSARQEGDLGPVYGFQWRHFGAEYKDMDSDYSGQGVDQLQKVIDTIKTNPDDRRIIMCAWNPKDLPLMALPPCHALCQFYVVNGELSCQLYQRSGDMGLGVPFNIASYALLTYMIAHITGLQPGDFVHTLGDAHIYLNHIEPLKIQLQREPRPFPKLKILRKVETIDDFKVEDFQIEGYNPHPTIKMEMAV

In the case of `Nc1nc2ccc(CNc3ccc(C(=O)N[C@@H](CCC(=O)O)C(=O)O)cc3)cc2c(=O)[nH]1` [Compound 1, 5,8-Dideazafolic Acid], at Mouse liver FPGS [1], the “Vmax (rel), Mouse liver FPGS” value is 1.3 and the “k'(rel), Mouse liver FPGS” value is listed as 29. The IC50 with L1210 cells [2] is 2700 nM.

For the compound `O=C(O)CC[C@H](NC(=O)c1ccc(NCc2ccc3nn[nH]c(=O)c3c2)cc1)C(=O)O` [Compound 10, N-[4-(1,2,3-Benzotriazin-4(3H)-on-6-yl)methyl] aminobenzoyl-L-glutamic Acid], the “increase in TS binding” value at L1210 TS [3] (10 versus 2-desamino analogue 3) was “ca. sixfold”. The compound further came in with a Ki at L1210 TS [3] (purified TS from L1210 cells, Table 1) of 330 nM. For the same compound, in the data set on L1210 cells [4] (L1210 cells), the “difference in IC50 with and without dThd compared with 1, 2 and 3” value is “comparable to that reported for 1 and 3, but much lower than that reported for 2”. The “potency against cultured cells relative to 2-desamino-5,8-dideazafolate” value in the data set on L1210 cells [4] (L1210 cells, 10 versus 3) is recorded as “comparable”. Moreover, the “difference in IC50 with and without dThd” value in the data set on L1210 cells [4] (L1210 cells, dThd 0.84 versus 0.42 μM) is on record as “twofold”. Further, the IC50 was determined as 840 nM with L1210 cells [4] (10 μM dThd (footnote e), read-out: IC50, L1210 cells grown in the presence of dThd) and 420 nM with L1210 cells [4] (48 h, RPMI 1640 with 10% nondialyzed fetal calf serum, without dThd, read-out: IC50, L1210 cells). Further, the “k'(rel) lower than the k'(rel) of 1 or 3” value on Mouse liver FPGS [5] (ratio 10 versus 1 or 3) is listed as 4.6 -fold. Moreover, on Mouse liver FPGS [5] (ratio 10 versus CB3717), the “k'(rel) greater than that for CB3717” value was “twofold”. Moreover, at Mouse liver FPGS [5] (relative to folic acid (1.0)), the “Vmax (rel), Mouse liver FPGS” value was 1.6. Further, the “k'(rel), Mouse liver FPGS” value on Mouse liver FPGS [5] (relative to folic acid (1.0), Km (app) divided into Vmax (rel)) turned out to be 6.3.

For `O=C(O)CC[C@H](NC(=O)c1ccc(NCc2ccc3nc[nH]c(=O)c3c2)cc1)C(=O)O` [Compound 3, 2-Desamino-5,8-dideazafolic Acid], at Mouse liver FPGS [1], the “Vmax (rel), Mouse liver FPGS” value is 1.3 and the “k'(rel), Mouse liver FPGS” value is listed as 29. Also, the Ki on L1210 TS [6] (purified TS from L1210 cells, Table 1, read-out: Ki, L1210 TS) is 2000 nM. Further, the Ki at L1210 TS [6] (reported previously (Jackman et al.), read-out: Ki for TS inhibition) is 2000 nM. The IC50 in the data set on L1210 cells [2] is 430 nM.

For the compound `C#CCN(Cc1ccc2nc(N)[nH]c(=O)c2c1)c1ccc(C(=O)N[C@@H](CCC(=O)O)C(=O)O)cc1` [Compound 2, N^10 -Propargyl-5,8-dideazafolic Acid], in data set [7], the solubility result is “low solubility at physiologic pH”. Also, at Mouse liver FPGS [1], the “Vmax (rel), Mouse liver FPGS” value was 0.88 and the “k'(rel), Mouse liver FPGS” value is on record as 2.3. Also, in [8], the “toxicities in clinical use” value is “hepatic and renal toxicities”. The “transport mechanism of cell entry” value in [9] was “distinct from that of reduced folates and MTX”. In addition, the “reversal of inhibitory effect on growth of L1210 cells by thymidine plus folinic acid” value in the data set on L1210 cells [2] (5 μM dThd and 5 μM folinic acid) is recorded as “restored to normal levels”. Further, in the data set with L1210 cells [2] (10 μM thymidine alone), the “reversal of inhibitory effect on growth of L1210 cells by thymidine” value is on record as “not fully reversed”. Moreover, in the data set with L1210 cells [2] (10 μM thymidine and 50 μM hypoxanthine), the “reversal of inhibitory effect on growth of L1210 cells by thymidine plus hypoxanthine” value is given as “restored to normal levels”. Also, the IC50 in the data set with L1210 cells [2] was 3500 nM.
